# What was measured:
# [1] = target: T1, 5-hydroxytryptamine receptor 1A (Rattus norvegicus, UniProt P19327); assay: In vitro inhibitory activity against [3H]8-OH-DPAT binding to 5-hydroxytryptamine 1A receptor
# T1 sequence (P19327 whole entry): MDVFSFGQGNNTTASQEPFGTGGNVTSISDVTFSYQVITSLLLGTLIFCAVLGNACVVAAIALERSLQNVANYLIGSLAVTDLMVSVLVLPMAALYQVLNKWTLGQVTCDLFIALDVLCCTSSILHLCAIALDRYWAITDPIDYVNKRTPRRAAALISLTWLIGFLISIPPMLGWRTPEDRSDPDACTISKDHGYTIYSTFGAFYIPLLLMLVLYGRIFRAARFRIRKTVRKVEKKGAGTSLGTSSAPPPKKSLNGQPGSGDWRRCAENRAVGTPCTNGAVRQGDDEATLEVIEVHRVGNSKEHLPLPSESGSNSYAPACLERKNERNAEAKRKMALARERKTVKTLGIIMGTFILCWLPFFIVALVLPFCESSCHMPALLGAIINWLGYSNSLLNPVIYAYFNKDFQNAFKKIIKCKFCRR
# [2] = target: Serotonin 2 (5-HT2) receptor (Rattus norvegicus, UniProt P30994+P08909+P14842); assay: In vitro inhibitory activity against [3H]ketanserin binding to 5-hydroxytryptamine 2 receptor; format: protein assay
# Mus musculus [3] = assay: In vivo effective dose required to antagonize the apomorphine induced climbing response in mice administered intraperitoneally.; format: functional; conditions: ip
# Mus musculus [4] = assay: In vivo effective dose required to antagonize the apomorphine induced climbing response in mice administered perorally; format: functional; conditions: po
# Mus musculus [5] = assay: In vivo effective dose to antagonize the apomorphine induced climbing response in mice administered perorally; format: functional; conditions: po
# Mus musculus [6] = assay: In vivo effective dose to antagonize the apomorphine induced climbing response in mice administered intraperitoneally.; format: functional; conditions: ip
# Mus musculus [7] = assay: In vivo effective dose to antagonize the apomorphine induced climbing response in mice administered intraperitoneally. (value in bracket denotes 95% confidence limit); format: functional; conditions: ip
# Mus musculus [8] = assay: In vivo effective dose to antagonize the apomorphine induced climbing response in mice administered perorally. value in bracket denotes 95% confidence limit); format: functional; conditions: po
# Mus musculus [9] = assay: In vivo effective dose to antagonize the apomorphine induced climbing response in stereotypy mouse administered perorally Value in parentheses is 95% confidence limits.; format: functional; conditions: po
# Mus musculus [10] = assay: In vivo effective dose to antagonize the apomorphine induced climbing response in stereotype mouse administered intraperitoneally ( value in bracket indicates 95% confidence limit); format: functional; conditions: ip
# Mus musculus [11] = assay: In vivo effective dose to induce catalepsy in mouse administered perorally. Value in parentheses is 95% confidence limits.; format: functional; conditions: po
# Mus musculus [12] = assay: In vivo effective dose to antagonize the apomorphine induced climbing response in stereotype mouse administered intraperitoneally; format: functional; conditions: ip
# Mus musculus [13] = assay: In vivo effective dose to induce catalepsy in mouse administered perorally.; format: functional; conditions: po
# Mus musculus [14] = assay: In vivo effective dose to antagonize the apomorphine induced climbing response in stereotypy mouse administered perorally; format: functional; conditions: po
Structure (SMILES),IC50 [1],IC50 [2],ED50 (Mus musculus [3]),ED50 (Mus musculus [4]),other results
Cl.Nc1cc(F)ccc1C(=O)NCCCCN1CCN(c2nsc3ccccc23)CC1,4.2 nM,0.59 nM,2.5 mg/kg,27.1 mg/kg,–
Cl.O=C(NCCCCN1CCN(c2nsc3ccccc23)CC1)c1ccccc1O,12 nM,3.9 nM,1 mg/kg,–,ED50 (Mus musculus [5]): 21.5 mg/kg
Cl.O=C(NCCCCN1CCN(c2nsc3ccccc23)CC1)c1ccc(/N=N/c2ccccc2)cc1,540 nM,26 nM,> 25 mg/kg,–,–
CC(C)[C@@H](Nc1ccccc1C(=O)NCCCCN1CCN(c2nsc3ccccc23)CC1)C(=O)O.Cl,8.6 nM,1.6 nM,> 25 mg/kg,–,–
CC(C)(C)OC(=O)Nc1ccc(C(=O)NCCCCN2CCN(c3nsc4ccccc34)CC2)cc1.Cl,0.7 nM,0.23 nM,> 25 mg/kg,–,–
CCOC(=O)Nc1ccccc1C(=O)NCCCCN1CCN(c2nsc3ccccc23)CC1.Cl,–,1.4 nM,1.8 mg/kg,32.8 mg/kg,–
Cl.Nc1cc(C(F)(F)F)ccc1C(=O)NCCCCN1CCN(c2nsc3ccccc23)CC1,12 nM,2.3 nM,6.9 mg/kg,> 50 mg/kg,–
Cl.Nc1ccc([N+](=O)[O-])cc1C(=O)NCCCCN1CCN(c2nsc3ccccc23)CC1,20 nM,3.8 nM,19.6 mg/kg,–,–
Cc1cccc(N)c1C(=O)NCCCCN1CCN(c2nsc3ccccc23)CC1.Cl,64 nM,8.9 nM,> 25 mg/kg,–,–
Cl.Nc1ccc(F)cc1C(=O)NCCCCN1CCN(c2nsc3ccccc23)CC1,–,2.3 nM,2.2 mg/kg,31.8 mg/kg,–
COc1ccc(N)c(C(=O)NCCCCN2CCN(c3nsc4ccccc34)CC2)c1.Cl,10 nM,1.4 nM,2.1 mg/kg,> 50 mg/kg,–
Cl.NNc1ccccc1C(=O)NCCCCN1CCN(c2nsc3ccccc23)CC1,3.8 nM,2.4 nM,10.8 mg/kg,40.4 mg/kg,–
Cl.O=C(NCCCCN1CCN(c2nsc3ccccc23)CC1)c1cc(Cl)cc(Cl)c1,49 nM,1.7 nM,> 25 mg/kg,–,–
Cl.[N-]=[N+]=Nc1ccccc1C(=O)NCCCCN1CCN(c2nsc3ccccc23)CC1,3.7 nM,1.8 nM,–,–,ED50 (Mus musculus [6]): 25 mg/kg
Cl.Nc1ccccc1C(=O)NCCCCN1CCN(c2nsc3ccccc23)CC1,3.8 nM,3.3 nM,–,–,ED50 (Mus musculus [7]): 1.5 mg/kg; ED50 (Mus musculus [8]): 10.1 mg/kg; ED50 (Mus musculus [9]): 91.1 mg/kg; ED50 (Mus musculus [10]): 10.2 mg/kg; ED50 (Mus musculus [11]): 192 mg/kg
CNc1ccccc1C(=O)NCCCCN1CCN(c2nsc3ccccc23)CC1.Cl,10 nM,12 nM,5.8 mg/kg,15.6 mg/kg,ED50 (Mus musculus [12]): 13.5 mg/kg; ED50 (Mus musculus [13]): 80.6 mg/kg; ED50 (Mus musculus [14]): 65 mg/kg
CC(=O)Nc1ccccc1C(=O)NCCCCN1CCN(c2nsc3ccccc23)CC1.Cl,5.2 nM,2 nM,4.1 mg/kg,22.3 mg/kg,–
COc1cccc(C(=O)NCCCCN2CCN(c3nsc4ccccc34)CC2)c1N.Cl,4.1 nM,1.6 nM,2.2 mg/kg,20.3 mg/kg,–
COc1c(Br)ccc(O)c1C(=O)NCCCCN1CCN(c2nsc3ccccc23)CC1.Cl,–,14 nM,4.7 mg/kg,> 25 mg/kg,–
Cl.Nc1cccc(Cl)c1C(=O)NCCCCN1CCN(c2nsc3ccccc23)CC1,–,3.4 nM,> 25 mg/kg,–,–
Cl.Nc1cccc(F)c1C(=O)NCCCCN1CCN(c2nsc3ccccc23)CC1,4.2 nM,1.6 nM,7.8 mg/kg,20.8 mg/kg,–

# — ChEMBL document CHEMBL1129740, “Structure-activity relationships of a series of substituted benzamides: potent D2/5-HT2 antagonists and 5-HT1a agonists as neuroleptic agents” (J Med Chem, 1996)
